Assay results published in patent US9113629B2, “4-amino-6-(4-substituted-phenyl)-picolinates and 6-amino-2-(4-substituted-phenyl)-pyrimidine-4-carboxylates and their use as herbicides” (DOW AGROSCIENCES LLC, priority 2013, dated 2015).

System: SASKR: Russian thistle (Salsola iberica)
Experiment: Post-emergent Test III, herbicidal activity in wheat and barley
Assay type: in vivo
Conditions: Salsola tragus, post-emergence, 504 h; Table 8; 35 g ai/ha; post-emergent; 21 d; read-out: Visual Growth Reduction (%) 21 Days After Application SASKR
Method in brief: (§1)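 Plants at the second to third true-leaf stage, grown in a greenhouse at about 18/17 °C with a 14 h photoperiod, were sprayed post-emergence at 187 L/ha with the high rate and ½× to 1/16× serial dilutions in an acetone/DMSO/crop-oil/surfactant carrier. Injury was rated visually at 21 d on a 0–100% scale, and GR20–GR90 were derived by probit analysis.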

Compound	pest or weed control at 35 g/ha
COC(=O)c1nc(-c2ccc(I)c(F)c2)nc(N)c1OC [Compound 27, Methyl 6-amino-2-(3-fluoro-4-iodophenyl)-5-methoxypyrimidine-4-carboxylate]	60 to 74%
COc1c(N)nc(-c2ccc(I)c(F)c2)nc1C(=O)O [Compound 37, 6-Amino-2-(3-fluoro-4-iodophenyl)-5-methoxypyrimidine-4-carboxylic acid]	45 to 59%

Same assay, conditions: Salsola tragus, post-emergence, 504 h; Table 8; 70 g ai/ha; post-emergent; 21 d; read-out: Visual Growth Reduction (%) 21 Days After Application SASKR

Compound	pest or weed control at 70 g/ha
COC(=O)c1nc(-c2ccc(I)c(F)c2)nc(N)c1OC [Compound 27, Methyl 6-amino-2-(3-fluoro-4-iodophenyl)-5-methoxypyrimidine-4-carboxylate]	60 to 74%
COc1c(N)nc(-c2ccc(I)c(F)c2)nc1C(=O)O [Compound 37, 6-Amino-2-(3-fluoro-4-iodophenyl)-5-methoxypyrimidine-4-carboxylic acid]	60 to 74%

Same assay, conditions: Table 8; dose for 50 percent growth reduction, probit analysis; 21 d

Compound	GR50 SASKR
COC(=O)c1nc(-c2ccc(I)c(F)c2)nc(N)c1OC [Compound 27, Methyl 6-amino-2-(3-fluoro-4-iodophenyl)-5-methoxypyrimidine-4-carboxylate]	22 g ai/ha
COc1c(N)nc(-c2ccc(I)c(F)c2)nc1C(=O)O [Compound 37, 6-Amino-2-(3-fluoro-4-iodophenyl)-5-methoxypyrimidine-4-carboxylic acid]	33 g ai/ha

Same assay, conditions: Table 8; dose for 80 percent growth reduction, probit analysis; 21 d

Compound	GR80 SASKR
COC(=O)c1nc(-c2ccc(I)c(F)c2)nc(N)c1OC [Compound 27, Methyl 6-amino-2-(3-fluoro-4-iodophenyl)-5-methoxypyrimidine-4-carboxylate]	116 g ai/ha
COc1c(N)nc(-c2ccc(I)c(F)c2)nc1C(=O)O [Compound 37, 6-Amino-2-(3-fluoro-4-iodophenyl)-5-methoxypyrimidine-4-carboxylic acid]	104 g ai/ha

System: PHAMI: lesser canary grass (Phalaris minor)
Experiment: as above
Assay type: in vivo
Conditions: Phalaris minor, post-emergence, 504 h; 35 g ai/ha; read-out: Visual Growth Reduction (%) 21 Days After Application PHAMI
Method in brief: as §1

Compound	pest or weed control at 35 g/ha
Nc1c(F)c(-c2ccc(Br)cc2)nc(C(=O)O)c1Cl [Compound 20]	85 to 94%
N#Cc1ccc(-c2nc(C(=O)O)c(Cl)c(N)c2F)cc1 [Compound 39]	0 to 29%

Same assay, conditions: Phalaris minor, post-emergence, 504 h; 70 g ai/ha; read-out: Visual Growth Reduction (%) 21 Days After Application PHAMI

Compound	pest or weed control at 70 g/ha
Nc1c(F)c(-c2ccc(Br)cc2)nc(C(=O)O)c1Cl [Compound 20]	85 to 94%
N#Cc1ccc(-c2nc(C(=O)O)c(Cl)c(N)c2F)cc1 [Compound 39]	30 to 44%

Same assay, conditions: Phalaris minor, post-emergence, 504 h; 140 g ai/ha; read-out: Visual Growth Reduction (%) 21 Days After Application PHAMI

Compound	pest or weed control at 140 g/ha
Nc1c(F)c(-c2ccc(Br)cc2)nc(C(=O)O)c1Cl [Compound 20]	85 to 94%
N#Cc1ccc(-c2nc(C(=O)O)c(Cl)c(N)c2F)cc1 [Compound 39]	45 to 59%

Same assay, conditions: probit analysis, dose for growth reduction of 50 percent, 21 days after application

Compound	GR50 PHAMI
Nc1c(F)c(-c2ccc(Br)cc2)nc(C(=O)O)c1Cl [Compound 20]	5 g ai/ha
N#Cc1ccc(-c2nc(C(=O)O)c(Cl)c(N)c2F)cc1 [Compound 39]	118 g ai/ha

Same assay, conditions: probit analysis, dose for growth reduction of 80 percent, 21 days after application

Compound	GR80 PHAMI
Nc1c(F)c(-c2ccc(Br)cc2)nc(C(=O)O)c1Cl [Compound 20]	25 g ai/ha
N#Cc1ccc(-c2nc(C(=O)O)c(Cl)c(N)c2F)cc1 [Compound 39]	>140 g ai/ha

System: VIOSS: wild pansy (Viola tricolor), field violet (Viola arvensis)
Experiment: as above
Assay type: in vivo
Conditions: Table 8; dose for 50 percent growth reduction, probit analysis; 21 d
Method in brief: as §1

Compound	GR50 VIOSS
COC(=O)c1nc(-c2ccc(I)c(F)c2)nc(N)c1OC [Compound 27, Methyl 6-amino-2-(3-fluoro-4-iodophenyl)-5-methoxypyrimidine-4-carboxylate]	8 g ai/ha
COc1c(N)nc(-c2ccc(I)c(F)c2)nc1C(=O)O [Compound 37, 6-Amino-2-(3-fluoro-4-iodophenyl)-5-methoxypyrimidine-4-carboxylic acid]	12 g ai/ha

Same assay, conditions: Table 8; dose for 80 percent growth reduction, probit analysis; 21 d

Compound	GR80 VIOSS
COC(=O)c1nc(-c2ccc(I)c(F)c2)nc(N)c1OC [Compound 27, Methyl 6-amino-2-(3-fluoro-4-iodophenyl)-5-methoxypyrimidine-4-carboxylate]	27 g ai/ha
COc1c(N)nc(-c2ccc(I)c(F)c2)nc1C(=O)O [Compound 37, 6-Amino-2-(3-fluoro-4-iodophenyl)-5-methoxypyrimidine-4-carboxylic acid]	35 g ai/ha

Same assay, conditions: Viola tricolor, post-emergence, 504 h; Table 8; 35 g ai/ha; post-emergent; 21 d; read-out: Visual Growth Reduction (%) 21 Days After Application VIOSS

Compound	pest or weed control at 35 g/ha
COC(=O)c1nc(-c2ccc(I)c(F)c2)nc(N)c1OC [Compound 27, Methyl 6-amino-2-(3-fluoro-4-iodophenyl)-5-methoxypyrimidine-4-carboxylate]	75 to 84%
COc1c(N)nc(-c2ccc(I)c(F)c2)nc1C(=O)O [Compound 37, 6-Amino-2-(3-fluoro-4-iodophenyl)-5-methoxypyrimidine-4-carboxylic acid]	75 to 84%

Same assay, conditions: Viola tricolor, post-emergence, 504 h; Table 8; 70 g ai/ha; post-emergent; 21 d; read-out: Visual Growth Reduction (%) 21 Days After Application VIOSS

Compound	pest or weed control at 70 g/ha
COC(=O)c1nc(-c2ccc(I)c(F)c2)nc(N)c1OC [Compound 27, Methyl 6-amino-2-(3-fluoro-4-iodophenyl)-5-methoxypyrimidine-4-carboxylate]	95 to 100%
COc1c(N)nc(-c2ccc(I)c(F)c2)nc1C(=O)O [Compound 37, 6-Amino-2-(3-fluoro-4-iodophenyl)-5-methoxypyrimidine-4-carboxylic acid]	85 to 94%

System: STEME: common chickweed (Stellaria media)
Experiment: as above
Assay type: in vivo
Conditions: Stellaria media, post-emergence, 504 h; 35 g ai/ha; read-out: Visual Growth Reduction (%) 21 Days After Application STEME
Method in brief: as §1

Compound	pest or weed control at 35 g/ha
Nc1c(F)c(-c2ccc(Br)cc2)nc(C(=O)O)c1Cl [Compound 20]	75 to 84%
N#Cc1ccc(-c2nc(C(=O)O)c(Cl)c(N)c2F)cc1 [Compound 39]	0 to 29%

Same assay, conditions: Stellaria media, post-emergence, 504 h; 70 g ai/ha; read-out: Visual Growth Reduction (%) 21 Days After Application STEME

Compound	pest or weed control at 70 g/ha
Nc1c(F)c(-c2ccc(Br)cc2)nc(C(=O)O)c1Cl [Compound 20]	95 to 100%
N#Cc1ccc(-c2nc(C(=O)O)c(Cl)c(N)c2F)cc1 [Compound 39]	30 to 44%

Same assay, conditions: Stellaria media, post-emergence, 504 h; 140 g ai/ha; read-out: Visual Growth Reduction (%) 21 Days After Application STEME

Compound	pest or weed control at 140 g/ha
Nc1c(F)c(-c2ccc(Br)cc2)nc(C(=O)O)c1Cl [Compound 20]	95 to 100%
N#Cc1ccc(-c2nc(C(=O)O)c(Cl)c(N)c2F)cc1 [Compound 39]	45 to 59%

Same assay, conditions: probit analysis, dose for growth reduction of 50 percent, 21 days after application

Compound	GR50 STEME
Nc1c(F)c(-c2ccc(Br)cc2)nc(C(=O)O)c1Cl [Compound 20]	8 g ai/ha
N#Cc1ccc(-c2nc(C(=O)O)c(Cl)c(N)c2F)cc1 [Compound 39]	111 g ai/ha

Same assay, conditions: probit analysis, dose for growth reduction of 80 percent, 21 days after application

Compound	GR80 STEME
Nc1c(F)c(-c2ccc(Br)cc2)nc(C(=O)O)c1Cl [Compound 20]	25 g ai/ha
N#Cc1ccc(-c2nc(C(=O)O)c(Cl)c(N)c2F)cc1 [Compound 39]	>140 g ai/ha

System: CIRAR: Canada thistle (Cirsium arvense)
Experiment: as above
Assay type: in vivo
Conditions: Cirsium arvense, post-emergence, 504 h; Table 8; 35 g ai/ha; post-emergent; 21 d; read-out: Visual Growth Reduction (%) 21 Days After Application CIRAR
Method in brief: as §1

Compound	pest or weed control at 35 g/ha
COC(=O)c1nc(-c2ccc(I)c(F)c2)nc(N)c1OC [Compound 27, Methyl 6-amino-2-(3-fluoro-4-iodophenyl)-5-methoxypyrimidine-4-carboxylate]	75 to 84%
COc1c(N)nc(-c2ccc(I)c(F)c2)nc1C(=O)O [Compound 37, 6-Amino-2-(3-fluoro-4-iodophenyl)-5-methoxypyrimidine-4-carboxylic acid]	45 to 59%

Same assay, conditions: Cirsium arvense, post-emergence, 504 h; Table 8; 70 g ai/ha; post-emergent; 21 d; read-out: Visual Growth Reduction (%) 21 Days After Application CIRAR

Compound	pest or weed control at 70 g/ha
COC(=O)c1nc(-c2ccc(I)c(F)c2)nc(N)c1OC [Compound 27, Methyl 6-amino-2-(3-fluoro-4-iodophenyl)-5-methoxypyrimidine-4-carboxylate]	75 to 84%
COc1c(N)nc(-c2ccc(I)c(F)c2)nc1C(=O)O [Compound 37, 6-Amino-2-(3-fluoro-4-iodophenyl)-5-methoxypyrimidine-4-carboxylic acid]	75 to 84%

Same assay, conditions: Table 8; dose for 50 percent growth reduction, probit analysis; 21 d

Compound	GR50 CIRAR
COC(=O)c1nc(-c2ccc(I)c(F)c2)nc(N)c1OC [Compound 27, Methyl 6-amino-2-(3-fluoro-4-iodophenyl)-5-methoxypyrimidine-4-carboxylate]	18 g ai/ha
COc1c(N)nc(-c2ccc(I)c(F)c2)nc1C(=O)O [Compound 37, 6-Amino-2-(3-fluoro-4-iodophenyl)-5-methoxypyrimidine-4-carboxylic acid]	23 g ai/ha

Same assay, conditions: Table 8; dose for 80 percent growth reduction, probit analysis; 21 d

Compound	GR80 CIRAR
COC(=O)c1nc(-c2ccc(I)c(F)c2)nc(N)c1OC [Compound 27, Methyl 6-amino-2-(3-fluoro-4-iodophenyl)-5-methoxypyrimidine-4-carboxylate]	70 g ai/ha
COc1c(N)nc(-c2ccc(I)c(F)c2)nc1C(=O)O [Compound 37, 6-Amino-2-(3-fluoro-4-iodophenyl)-5-methoxypyrimidine-4-carboxylic acid]	103 g ai/ha

System: GALAP: cleavers (Galium aparine)
Experiment: as above
Assay type: in vivo
Conditions: Galium aparine, post-emergence, 504 h; Table 8; 35 g ai/ha; post-emergent; 21 d; read-out: Visual Growth Reduction (%) 21 Days After Application GALAP
Method in brief: as §1

Compound	pest or weed control at 35 g/ha
COC(=O)c1nc(-c2ccc(I)c(F)c2)nc(N)c1OC [Compound 27, Methyl 6-amino-2-(3-fluoro-4-iodophenyl)-5-methoxypyrimidine-4-carboxylate]	85 to 94%
COc1c(N)nc(-c2ccc(I)c(F)c2)nc1C(=O)O [Compound 37, 6-Amino-2-(3-fluoro-4-iodophenyl)-5-methoxypyrimidine-4-carboxylic acid]	85 to 94%

Same assay, conditions: Galium aparine, post-emergence, 504 h; Table 8; 70 g ai/ha; post-emergent; 21 d; read-out: Visual Growth Reduction (%) 21 Days After Application GALAP

Compound	pest or weed control at 70 g/ha
COC(=O)c1nc(-c2ccc(I)c(F)c2)nc(N)c1OC [Compound 27, Methyl 6-amino-2-(3-fluoro-4-iodophenyl)-5-methoxypyrimidine-4-carboxylate]	85 to 94%
COc1c(N)nc(-c2ccc(I)c(F)c2)nc1C(=O)O [Compound 37, 6-Amino-2-(3-fluoro-4-iodophenyl)-5-methoxypyrimidine-4-carboxylic acid]	95 to 100%

Same assay, conditions: Table 8; dose for 50 percent growth reduction, probit analysis; 21 d

Compound	GR50 GALAP
COC(=O)c1nc(-c2ccc(I)c(F)c2)nc(N)c1OC [Compound 27, Methyl 6-amino-2-(3-fluoro-4-iodophenyl)-5-methoxypyrimidine-4-carboxylate]	5 g ai/ha
COc1c(N)nc(-c2ccc(I)c(F)c2)nc1C(=O)O [Compound 37, 6-Amino-2-(3-fluoro-4-iodophenyl)-5-methoxypyrimidine-4-carboxylic acid]	14 g ai/ha

Same assay, conditions: Table 8; dose for 80 percent growth reduction, probit analysis; 21 d

Compound	GR80 GALAP
COC(=O)c1nc(-c2ccc(I)c(F)c2)nc(N)c1OC [Compound 27, Methyl 6-amino-2-(3-fluoro-4-iodophenyl)-5-methoxypyrimidine-4-carboxylate]	25 g ai/ha
COc1c(N)nc(-c2ccc(I)c(F)c2)nc1C(=O)O [Compound 37, 6-Amino-2-(3-fluoro-4-iodophenyl)-5-methoxypyrimidine-4-carboxylic acid]	31 g ai/ha
